Measurements as given in article PMC12428754, “Testing Strategies for Metabolite-Mediated Neurotoxicity” (International Journal of Molecular Sciences, 2025).

Legend:
[1] = system: hiPSC-derived neural crest-like cells; assay: cMINC (UKN2) neural crest cell migration assay; assay type: cell-based, human; settings: listed under the metabolite
Method: Figure 6 The transfer of the metabolisation module to the neural crest cell migration assay (cMINC). (A) A schematic of the cMINC (circular migration of neural crest cells) assay. The cells were seeded around a central stopper to create a cell-free circular area. Migration was initiated 24 h after seeding by removing the stopper. This is defined as the day of migration (DoM) 0. On DoM 1, the cells were exposed to toxicants. After 24 h of exposure, both cell migration and viability were quantified, using automated high-content imaging. (B) Compatibility of the metabolisation module (preincubation with 500 µg/mL S9 at 37 °C for 2 h) with the cMINC assay: The setup was as described in Figure 4 and as exemplified in Figure 5A. No compound was added (solvent control). The S9 mixture (at 500 µg/mL ± NADPH) was added to the normal cell culture medium of the cMINC assay (so that the addition was 10% of the total volume). Data are from three independent experiments. (C,D) The concentration-dependent effects on migration were evaluated for metabolite mixtures generated from bromethalin (C) or chlorfenapyr (D). […] The arrows indicate the direction of sensitivity shift between NADPH-dependent and -independent metabolite mixtures, with accompanying fold change values. The concentrations are given as nominal concentrations of the parent compound. Abbreviations: n.s., not significant. TEXT PRINTED IN THE PICTURE: (C) Bromethalin: x30 | (D) Chlorfenapyr: x15
The MINC assay was performed as previously described. Briefly, 96-well plates were prepared by inserting a central 2 mm diameter stopper (Platypus Technologies, Madison, WI, USA) into pre-coated wells with a composite poly-L-ornithine (PLO; 10 µg/mL), fibronectin (1 µg/mL), and laminin (1 µg/mL) matrix. […] After a further 24 h (DoM 2), cell migration and viability were assessed. […] High content imaging was performed, and data were analysed using the RingAssay V1 software (http://invitrotox.uni-konstanz.de/, accessed on 3 February 2025). […]

[2] = system: hiPSC-derived immature human dorsal root ganglia neuron-like cells; assay: PeriTox (UKN5a) neurite outgrowth assay; assay type: cell-based
Method: PeriTox assay was performed as previously described. In brief, cryopreserved hiPSC-derived immature human dorsal root ganglia neuron-like cells were thawed and plated at a density of 100,000 cells/cm^2 into matrigel-coated 96-well plates. The cells were cultured in 75 µL PeriTox differentiation medium (PDM) consisting of 25% KSR-S and 75% N2-S media supplemented with 1.5 µM CHIR99021, 1.5 µM SU5402, and 5 µM DAPT (KSR-S: knockout DMEM with 15% serum replacement, 1x Glutamax, 1x nonessential amino acids, and […] beta-mercaptoethanol; N2-S: DMEM/F12, with 2 mM Glutamax, 0.1 mg/mL apotransferrin, 1.55 mg/mL glucose, 25 µg/mL insulin, […] putrescine, 30 nM selenium, and 20 nM progesterone). After one hour, 25 µL PDM with 4x concentrated serial dilutions of the test compounds was added to the cells.
The image acquisition and analysis were conducted according to established protocols. The cells were stained with Hoechst H-33342 (1 µg/mL) to visualise nuclei and calcein-AM (1 µM) to label viable cell structures. Fluorescent images were acquired using an automated imaging system. An image analysis algorithm detected nuclei to define somatic regions, which were then excluded from the total calcein-positive area. The remaining signal was quantified as the neurite area.
In the first step, matched technical replicates were averaged. […] For visualisation, GraphPad Prism 9 was used. […]
Supplementary Figure S1: Comparison of data from the MitoMet test and the PeriTox test. A) Exposure scheme for the PeriTox test (UKN5a):
For testing, cryopreserved hiPSC-derived immature human dorsal root ganglia neuron-like cells were thawed and plated into 96-well plates. Cells were treated with toxicants at one h after plating. Neurite outgrowth and viability were determined at 24 h later, using automated high content imaging. B) Benchmark concentrations (BMC25) were calculated as a measure for “onset of toxicity” for the MitoMet (UKN4b; as described in Figure 1) and UKN5a assay. If no BMC could be determined, the highest tested concentration was used as surrogate endpoint. The arrows indicate the sensitivity shifts of parent vs metabolite in the respective assay. […]

Compound | increase in potency of metabolite compared to parent (BMC25 ratio) [1] | parent/metabolite potency ratio (BMC25) ([2]; listed under the metabolite) | effect on peripheral neurite outgrowth ([2]; result in words)
N#Cc1c(-c2ccc(Cl)cc2)[nH]c(C(F)(F)F)c1Br [Tralopyril] | 28 fold | 15 | –
O=C(c1ccccc1)c1ccc(O)cc1 [4-Hydroxybenzophenone] | over three | – | neither benzophenone nor its hydroxy metabolite showed any significant effect
